The source made the active and inactive calls. The calls are words filed in the database; no cut-off is given here.
Assays:
[1] = test system: Chikungunya virus; assay: Antiviral activity against CHIKV infected in African green monkey Vero cells assessed as inhibition of viral replication at 20 uM measured after 4 days relative to control; format: functional; conditions: 96 h, time 4 day; for inhibition at 20 µM: Chikungunya virus, Vero
[2] = test system: Zika virus; assay: Antiviral activity against Zika virus infected in African green monkey Vero cells assessed as inhibition of viral replication at 20 uM measured after 4 days relative to control; format: functional; conditions: 96 h, time 4 day; for inhibition at 20 µM: Zika virus, Vero; for inhibition (INH): 20 µM
[3] = (§1) Cytotoxicity against African green monkey Vero cells by MTT assay; format: cell-based; conditions: chlorocebus sabaeus, Vero cells
[4] = test system: Zika virus; assay: Antiviral activity against Zika virus infected in African green monkey Vero cells assessed as reduction in viral replication by measuring viral titre after 72 hrs by plaque reduction assay; format: functional, organism-based
[5] = test system: Chikungunya virus; assay: Antiviral activity against CHIKV infected in African green monkey Vero cells assessed as reduction in viral replication by measuring viral titre after 72 hrs by plaque reduction assay; format: functional, organism-based
[6] = Selectivity index, ratio of CC50 for African green monkey Vero cells to EC50 for Zika virus; format: toxicity; conditions: read-out: Ratio CC50/EC50
[7] = Selectivity index, ratio of CC50 for African green monkey Vero cells to EC50 for CHIKV; format: toxicity; conditions: read-out: Ratio CC50/EC50
[8] = test system: Chikungunya virus; assay: Virucidal activity against CHIKV infected in African green monkey Vero cells at 5 to 20 uM measured after 4 hrs; format: functional, organism-based; conditions: dose 5-20 µM
[9] = test system: Chikungunya virus; assay: Antiviral activity against CHIKV infected in African green monkey Vero cells assessed as inhibition of viral adsorption at 20 uM measured after 4 days by crystal violet staining based assay relative to control; format: functional; conditions: 96 h, time 4 day
[10] = test system: Zika virus; assay: Antiviral activity against Zika virus infected in African green monkey Vero cells assessed as inhibition of viral adsorption at 20 uM measured after 4 days by crystal violet staining based assay relative to control; format: functional; conditions: 96 h, time 4 day
[11] = test system: Zika virus; assay: Virucidal activity against Zika virus infected in African green monkey Vero cells at 20 uM measured after 4 hrs relative to control; format: functional
[12] = test system: Vero; assay: as §1; format: cell-based; conditions: chlorocebus sabaeus, vero

SMILES	inhibition at 20 µM [1] [%]	inhibition at 20 µM [2] [%]	CC50 [3] [µM]	also measured
CC(C)=C1[C@H]2CC[C@@]3(C)O[C@@H]3CC[C@@]3(C)O[C@@H]3C[C@]2(C)C[C@@H]1O	98	81	1000	EC50 [4]: 8900 nM; EC50 [5]: 700 nM; selectivity ratio [6]: 110; selectivity ratio [7]: 1400
CC(C)=C1C(=O)C[C@@]2(C)C/C=C(\C)CC[C@H]3O[C@]3(C)CC[C@H]12	99	38	530	EC50 [5]: 1200 nM; selectivity ratio [7]: 440; Activity [8]: Active; inhibition at 20 µM [9]: > 90%
COC1(C)CC[C@@H](O)[C@]2(C)CC[C@@H]3C(=C(C)C)C(=O)C[C@@]3(C)C[C@@H]12 (relative stereo; 18)	25	–	730	inhibition (INH) [2]: 100%; EC50 [4]: 1800 nM; selectivity ratio [6]: 410; inhibition at 20 µM [10]: > 90%
C[C@H]1/C=C/[C@@]2(C)CC[C@@H](C(C)(C)O)[C@@H]2[C@@H](O)C[C@](C)(O)/C=C/C1	35	50	400	–
C=C(C)C1=CC[C@@]2(C)C/C=C(\C)CC/C=C(\CO)CC[C@H]12	0	61	600	–
NC(=O)c1ncn([C@@H]2O[C@H](CO)[C@@H](O)[C@H]2O)n1 [RIBAVIRIN]	97	93	–	–
CC(C)=C1C(=O)C[C@@]2(C)C/C=C(\CO)CC[C@H]3O[C@]3(C)CC[C@H]12	71	60	800	EC50 [5]: 13000 nM; selectivity ratio [7]: 61
CC(C)=C1[C@H]2CC[C@@]3(C)O[C@@H]3CC/C(C)=C/C[C@]2(C)C[C@@H]1O	45	99	580	EC50 [4]: 1200 nM; selectivity ratio [6]: 480; Activity [11]: 80%
COC1(C)CC[C@@H](O)[C@]2(C)CC[C@@H]3C(=C(C)C)C(=O)C[C@@]3(C)C[C@@H]12 (relative stereo; 19)	–	–	–	inhibition (INH) ([1]; 20 µM): 40%; inhibition (INH) [2]: 59%; CC50 [12]: 650 µM
CC(C)=C1C(=O)C[C@@]2(C)C[C@H]3O[C@]3(C)CC[C@H]3O[C@]3(C)CC[C@H]12	0	56	960	–
C=C(C)C1=CC[C@@]2(C)C[C@H]3O[C@]3(C)CC[C@H]3O[C@]3(C)CC[C@H]12	0	60	480	–
CC1=CC[C@@H](O)[C@]2(C)CC[C@@H]3C(=C(C)C)C(=O)C[C@@]3(C)C[C@@H]12	65	99	580	EC50 [4]: 2100 nM; selectivity ratio [6]: 280
CC(=O)OC/C1=C\CC/C(C)=C/C[C@]2(C)CC(=O)C(=C(C)C)[C@H]2CC1	0	30	250	–
CC(=O)O[C@@H]1C[C@@]2(C)C/C=C(\C)CC/C=C(\C)CC[C@@H]2C1=C(C)C	99	62	100	EC50 [5]: 1200 nM; selectivity ratio [7]: 83; Activity [8]: Active; inhibition at 20 µM [9]: > 90%
CC(C)=C1C(=O)C[C@@]2(C)C[C@H]3O[C@]3(C)CC/C=C(\C)CC[C@H]12	82	65	470	EC50 [5]: 9500 nM; selectivity ratio [7]: 50
CC(C)=C1[C@H](O)C[C@@]2(C)C[C@H]3O[C@]3(C)CC[C@H]3O[C@]3(C)CC[C@H]12	44	49	960	–
CC(C)=C1C(=O)C[C@@]2(C)C/C=C(\C=O)CC[C@H]3O[C@]3(C)CC[C@H]12	39	99	750	EC50 [4]: 900 nM; selectivity ratio [6]: 830; Activity [11]: 90%
CC(C)=C1[C@H](O)C[C@@]2(C)C/C=C(\C)CC[C@H]3O[C@]3(C)CC[C@H]12	33	30	430	–
CC(C)=C1C(=O)C[C@@]2(C)C/C=C(\C)CC/C=C(\C)CC[C@H]12 [DOLABELLANE]	0	0	150	–
CC(C)=C1[C@H]2CC/C(C)=C/CC/C(C)=C/C[C@]2(C)C[C@@H]1O	0	51	190	–
CC(C)=C1C(=O)C[C@@]2(C)C/C=C(\C)CC/C=C(\C=O)CC[C@H]12	29	0	100	–
